Active and inactive are the calls of the source.
What was measured:
[1] = target: Lysine-specific demethylase 4A (Homo sapiens, UniProt O75164); assay: JMJD2A histone demethylase inhibitors, dose response, selectivity assay for GASC-1 inhibitor project, biochemical, DELFIA europium, cherry-picked samples (AID 488840)
[2] = target: T1, Heat shock factor protein 1 (Mus musculus, UniProt P38532); assay: inhibition of MG132-induced HSE-luciferase signal, confirmation, cell-based, NIH3T3, luminescence, dose retest (AID 2382); format: functional;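 further: NIH3T3 fibroblasts with HSF1-driven luciferase reporter stressed by proteasome inhibitor MG132; luminescence from HSF1-driven luciferase expression after 8 hours of MG132 stress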
T1 sequence (P38532 whole entry): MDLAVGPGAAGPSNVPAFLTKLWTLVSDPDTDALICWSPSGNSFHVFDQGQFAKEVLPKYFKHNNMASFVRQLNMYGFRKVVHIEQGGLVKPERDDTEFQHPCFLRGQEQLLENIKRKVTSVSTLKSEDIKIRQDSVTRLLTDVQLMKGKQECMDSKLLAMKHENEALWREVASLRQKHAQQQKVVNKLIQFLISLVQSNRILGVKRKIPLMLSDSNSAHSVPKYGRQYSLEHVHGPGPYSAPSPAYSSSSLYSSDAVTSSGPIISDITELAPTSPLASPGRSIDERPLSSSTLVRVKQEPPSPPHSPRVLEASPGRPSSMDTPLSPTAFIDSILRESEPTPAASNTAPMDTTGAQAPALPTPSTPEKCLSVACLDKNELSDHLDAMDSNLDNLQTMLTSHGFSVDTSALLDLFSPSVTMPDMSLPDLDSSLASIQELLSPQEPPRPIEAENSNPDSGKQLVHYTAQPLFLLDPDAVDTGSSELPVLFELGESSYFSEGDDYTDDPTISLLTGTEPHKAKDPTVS

Cytochrome P450 2C19 = Cytochrome P450 2C19 (Homo sapiens, UniProt P33261); assay: Cytochrome panel assay with activity outcomes. Panel member name: p450-cyp2c19 Compounds with AC50 equal or less than 10 uM are considered active; format: functional; settings: read-out: AC50
Cytochrome P450 3A4 = Cytochrome P450 3A4 (Homo sapiens, UniProt P08684);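 further: CYP3A4 tested as one member of a cytochrome P450 panel screen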
Cytochrome P450 2D6 = Cytochrome P450 2D6 (Homo sapiens, UniProt P10635);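 further: CYP2D6 member of a cytochrome P450 panel assay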
ORF 73 = ORF 73 (Human herpesvirus 8, UniProt O40947); assay: inhibitors of C-LANA binding to LBS DNA, dose response, biochemical, fluorescence polarization, cherry-picked samples (AID 504725); design: species or system Human gammaherpesvirus 8;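 further: fluorescence polarization of a labeled DNA duplex reporting LANA DNA binding; potency is for inhibitors that block LANA binding to the DNA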
[3] = target: UDP-galactopyranose mutase (Mycobacterium tuberculosis, UniProt P9WIQ1); assay: Inhibitors of Mycobacterium tuberculosis UDP-galactopyranose mutase (UGM) enzyme Measured in Biochemical System Using Plate Reader - 2105-02_Inhibitor_Dose_CherryPick_Activity. [Related pubchem assays (depositor defined):AID504439]
Insulin-degrading enzyme [4] = target: T2, Insulin-degrading enzyme (Homo sapiens, UniProt P14735); assay: activators of recombinant IDE enzyme, dose response, counter-screen for IDE activator project, biochemical, fluorescence polarization (AID 588681)
T2 sequence (P14735 whole entry): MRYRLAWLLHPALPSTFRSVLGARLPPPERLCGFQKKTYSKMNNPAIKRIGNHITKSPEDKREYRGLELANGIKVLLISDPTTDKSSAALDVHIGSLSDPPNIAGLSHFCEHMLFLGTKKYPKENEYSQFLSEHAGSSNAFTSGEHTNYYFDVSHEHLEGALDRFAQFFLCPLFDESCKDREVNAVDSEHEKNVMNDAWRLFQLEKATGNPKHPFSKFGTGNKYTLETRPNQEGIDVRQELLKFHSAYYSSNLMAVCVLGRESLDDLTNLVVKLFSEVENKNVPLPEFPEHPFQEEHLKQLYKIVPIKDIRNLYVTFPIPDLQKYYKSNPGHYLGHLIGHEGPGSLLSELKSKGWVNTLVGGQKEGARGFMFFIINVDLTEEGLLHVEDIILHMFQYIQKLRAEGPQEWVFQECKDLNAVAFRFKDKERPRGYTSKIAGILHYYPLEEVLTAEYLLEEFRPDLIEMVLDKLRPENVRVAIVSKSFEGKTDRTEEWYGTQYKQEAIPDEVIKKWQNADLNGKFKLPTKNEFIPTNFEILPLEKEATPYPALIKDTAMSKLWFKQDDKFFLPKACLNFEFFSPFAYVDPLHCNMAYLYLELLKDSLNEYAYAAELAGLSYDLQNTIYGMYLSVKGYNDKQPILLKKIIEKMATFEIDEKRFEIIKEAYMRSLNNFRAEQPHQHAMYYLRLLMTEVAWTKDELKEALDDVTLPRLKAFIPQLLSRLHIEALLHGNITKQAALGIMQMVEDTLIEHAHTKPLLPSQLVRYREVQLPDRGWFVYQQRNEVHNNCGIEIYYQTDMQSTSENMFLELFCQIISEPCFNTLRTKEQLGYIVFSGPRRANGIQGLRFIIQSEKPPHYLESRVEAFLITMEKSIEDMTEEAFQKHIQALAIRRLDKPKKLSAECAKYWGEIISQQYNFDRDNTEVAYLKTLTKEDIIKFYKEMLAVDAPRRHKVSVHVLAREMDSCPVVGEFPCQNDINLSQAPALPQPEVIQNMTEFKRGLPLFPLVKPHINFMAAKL

[5] = target: T3, Apoptotic protease-activating factor 1 (Homo sapiens, UniProt O14727); format: functional
T3 sequence (O14727 whole entry): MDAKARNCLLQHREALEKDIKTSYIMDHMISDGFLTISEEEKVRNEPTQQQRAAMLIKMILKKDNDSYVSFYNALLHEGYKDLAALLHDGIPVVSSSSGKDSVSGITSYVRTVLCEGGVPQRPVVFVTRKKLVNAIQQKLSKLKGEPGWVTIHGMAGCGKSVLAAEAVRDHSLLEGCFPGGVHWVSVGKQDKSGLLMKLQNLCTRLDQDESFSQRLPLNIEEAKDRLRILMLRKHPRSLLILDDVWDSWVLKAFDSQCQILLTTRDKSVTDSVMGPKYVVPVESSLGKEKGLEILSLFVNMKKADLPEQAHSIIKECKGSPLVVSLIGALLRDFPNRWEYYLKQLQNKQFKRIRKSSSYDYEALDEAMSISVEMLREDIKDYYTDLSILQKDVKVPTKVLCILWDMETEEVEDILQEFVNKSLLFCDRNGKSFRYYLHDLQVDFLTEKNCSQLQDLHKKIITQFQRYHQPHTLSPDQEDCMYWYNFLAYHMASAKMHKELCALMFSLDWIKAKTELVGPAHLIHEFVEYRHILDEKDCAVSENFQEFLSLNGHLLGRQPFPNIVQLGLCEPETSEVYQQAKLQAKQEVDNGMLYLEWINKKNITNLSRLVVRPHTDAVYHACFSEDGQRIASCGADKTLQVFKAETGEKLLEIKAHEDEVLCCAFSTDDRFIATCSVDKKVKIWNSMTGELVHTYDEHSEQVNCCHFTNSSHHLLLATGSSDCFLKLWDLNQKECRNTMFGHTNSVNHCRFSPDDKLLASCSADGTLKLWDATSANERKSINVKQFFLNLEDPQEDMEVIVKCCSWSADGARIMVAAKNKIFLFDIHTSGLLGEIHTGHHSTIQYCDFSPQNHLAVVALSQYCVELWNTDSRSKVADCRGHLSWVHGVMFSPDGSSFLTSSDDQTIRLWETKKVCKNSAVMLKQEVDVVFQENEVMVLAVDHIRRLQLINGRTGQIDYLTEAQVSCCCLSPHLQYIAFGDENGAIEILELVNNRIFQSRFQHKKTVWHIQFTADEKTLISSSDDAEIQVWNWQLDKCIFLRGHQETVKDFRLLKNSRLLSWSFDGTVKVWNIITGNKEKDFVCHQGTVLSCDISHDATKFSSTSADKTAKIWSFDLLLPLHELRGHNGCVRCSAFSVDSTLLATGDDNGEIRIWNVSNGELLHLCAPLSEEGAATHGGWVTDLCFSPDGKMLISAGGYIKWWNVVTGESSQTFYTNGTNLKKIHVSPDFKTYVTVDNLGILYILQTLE

Insulin-degrading enzyme [6] = target: T2, Insulin-degrading enzyme; assay: activators of endogenous IDE in HEK cells, dose response, cell-based, fluorescence polarization (AID 588439); format: functional
HEK293 [7] = assay: HEK cell cytotoxicity by LDH release, dose response, cytotoxicity control for IDE activator project, fluorescence, HEK cells (AID 588440); format: functional, cell-based; settings: Homo sapiens;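 further: cytotoxicity by LDH release measuring loss of membrane integrity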
HEK293 [8] = assay: optical interference in Abeta FP readout, dose response, artefact control for IDE activator project, biochemical, fluorescence polarization (AID 588442); format: functional, cell-based; settings: Homo sapiens
[9] = target: T4, Intestinal-type alkaline phosphatase (Mus musculus, UniProt P24822); assay: PubChem AID 488874; format: functional
[10] = target: T5, Intestinal-type alkaline phosphatase (Homo sapiens, UniProt P09923); assay: human IAP inhibitors, dose response, biochemical, luminescent, uHTS hits, set 2 (AID 488793); format: functional
[11] = target: T5, Intestinal-type alkaline phosphatase; assay: Dose Response confirmation of uHTS hits from a small molecule inhibitors of human intestinal alkaline phosphatase via a luminescent assay. [Related pubchem assays (depositor defined):AID2544, AID2574]; format: functional
[12] = target: T6, Alkaline phosphatase, tissue-nonspecific isozyme (Homo sapiens, UniProt P05186); assay: inhibition of tissue-nonspecific alkaline phosphatase – biochemical, dose response (AID 488882); format: functional
T6 sequence (P05186 whole entry): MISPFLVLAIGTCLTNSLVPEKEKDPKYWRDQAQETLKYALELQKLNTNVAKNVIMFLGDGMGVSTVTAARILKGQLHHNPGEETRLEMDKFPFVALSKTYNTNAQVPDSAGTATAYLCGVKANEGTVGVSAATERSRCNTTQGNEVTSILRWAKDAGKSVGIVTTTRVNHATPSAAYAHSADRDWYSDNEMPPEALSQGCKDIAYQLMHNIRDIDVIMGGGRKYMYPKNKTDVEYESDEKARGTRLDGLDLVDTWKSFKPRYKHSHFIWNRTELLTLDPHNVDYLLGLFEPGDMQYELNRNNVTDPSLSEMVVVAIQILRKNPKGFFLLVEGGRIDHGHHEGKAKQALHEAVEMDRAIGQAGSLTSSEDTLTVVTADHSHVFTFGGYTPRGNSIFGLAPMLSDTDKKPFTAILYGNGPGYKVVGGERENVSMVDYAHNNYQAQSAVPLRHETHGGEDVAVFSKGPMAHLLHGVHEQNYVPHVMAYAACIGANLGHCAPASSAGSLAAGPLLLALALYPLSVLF

[13] = human group III sPLA2 inhibitors, dose response, biochemical, QFRET, IC50 (AID 743457);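 further: green fluorescence rise as the enzyme cleaves BODIPY PC-A2 in liposomes; potency for inhibition of the enzyme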
[14] = target: Voltage-dependent T-type calcium channel subunit alpha-1H (Homo sapiens, UniProt O95180); assay: Cav3.2 T-type channel blockers, cell-based, SynthLib3 library, HEK293 Cav3.2, fluorescence (AID 493041); format: functional
Candida albicans = assay: growth inhibition of resistant C. albicans, dose response, CaCi-8, fluconazole, Alamar Blue, dry powder (AID 488807); format: functional, organism-based
[15] = target: T4, Intestinal-type alkaline phosphatase; assay: PubChem AID 488875; format: functional
[16] = target: T5, Intestinal-type alkaline phosphatase; assay: human intestinal alkaline phosphatase activators, dose response, biochemical, luminescence, uHTS hits (AID 463120); format: functional
[17] = target: T5, Intestinal-type alkaline phosphatase; assay: human IAP activators, dose response, biochemical, luminescent, uHTS hits, set 2 (AID 488817); format: functional;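 further: potency of activators that raise enzyme activity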
[18] = target: T6, Alkaline phosphatase, tissue-nonspecific isozyme; assay: TNAP enzyme activators, dose response, selectivity assay for human IAP activator project, biochemical, TNAP isozyme, human IAP uHTS hits (AID 488886); format: functional;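 further: potency of compounds raising TNAP activity as a selectivity check on IAP activators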
cells = format: functional, cell-based
[19] = target: T7, Nuclear receptor subfamily 0 group B member 1 (Homo sapiens, UniProt P51843); format: functional, cell-based;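 further: HEK293T cells transfected with SF-1 and DAX-1 plus StAR promoter luciferase reporter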
T7 sequence (P51843 whole entry): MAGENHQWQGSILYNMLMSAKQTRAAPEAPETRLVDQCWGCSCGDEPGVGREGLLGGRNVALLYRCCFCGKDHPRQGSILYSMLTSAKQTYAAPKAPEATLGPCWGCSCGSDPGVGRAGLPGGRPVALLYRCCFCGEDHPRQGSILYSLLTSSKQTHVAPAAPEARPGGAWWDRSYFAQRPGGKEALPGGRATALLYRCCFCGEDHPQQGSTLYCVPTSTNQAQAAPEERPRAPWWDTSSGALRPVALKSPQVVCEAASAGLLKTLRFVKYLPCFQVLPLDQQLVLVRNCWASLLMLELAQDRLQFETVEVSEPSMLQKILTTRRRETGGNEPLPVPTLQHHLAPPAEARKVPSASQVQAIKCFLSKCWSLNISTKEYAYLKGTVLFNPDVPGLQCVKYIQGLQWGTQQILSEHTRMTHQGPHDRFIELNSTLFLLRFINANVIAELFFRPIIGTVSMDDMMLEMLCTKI

T5 sequence (P09923 whole entry): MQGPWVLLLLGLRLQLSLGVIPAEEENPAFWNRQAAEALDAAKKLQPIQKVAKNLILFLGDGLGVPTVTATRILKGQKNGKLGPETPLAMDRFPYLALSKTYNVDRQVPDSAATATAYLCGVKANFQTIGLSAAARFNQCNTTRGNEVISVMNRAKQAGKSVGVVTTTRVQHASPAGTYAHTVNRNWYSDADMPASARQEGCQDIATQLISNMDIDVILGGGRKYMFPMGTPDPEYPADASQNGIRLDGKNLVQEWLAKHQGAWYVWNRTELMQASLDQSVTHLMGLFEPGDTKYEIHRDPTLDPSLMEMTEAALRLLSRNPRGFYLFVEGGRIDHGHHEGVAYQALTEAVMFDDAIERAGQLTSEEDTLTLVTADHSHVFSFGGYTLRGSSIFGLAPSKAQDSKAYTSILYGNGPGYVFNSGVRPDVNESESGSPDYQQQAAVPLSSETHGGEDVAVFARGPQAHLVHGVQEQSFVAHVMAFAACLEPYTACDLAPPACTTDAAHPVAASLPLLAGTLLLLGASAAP
T4 sequence (P24822 whole entry): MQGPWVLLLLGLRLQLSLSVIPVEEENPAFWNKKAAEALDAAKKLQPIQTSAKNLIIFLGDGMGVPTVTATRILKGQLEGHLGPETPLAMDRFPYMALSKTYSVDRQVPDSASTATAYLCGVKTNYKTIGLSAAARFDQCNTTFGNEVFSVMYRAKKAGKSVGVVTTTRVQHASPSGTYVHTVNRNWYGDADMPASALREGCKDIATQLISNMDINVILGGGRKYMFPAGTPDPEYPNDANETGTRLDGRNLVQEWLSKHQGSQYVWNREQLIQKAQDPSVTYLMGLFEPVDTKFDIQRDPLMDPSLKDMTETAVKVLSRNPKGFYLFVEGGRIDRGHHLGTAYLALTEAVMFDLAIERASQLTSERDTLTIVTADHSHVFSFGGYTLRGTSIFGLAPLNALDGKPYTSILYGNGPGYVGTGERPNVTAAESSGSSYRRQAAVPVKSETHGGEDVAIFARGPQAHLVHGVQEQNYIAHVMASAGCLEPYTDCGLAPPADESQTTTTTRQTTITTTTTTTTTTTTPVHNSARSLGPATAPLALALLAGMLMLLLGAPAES
Sequence of ORF 73 (O40947 whole entry): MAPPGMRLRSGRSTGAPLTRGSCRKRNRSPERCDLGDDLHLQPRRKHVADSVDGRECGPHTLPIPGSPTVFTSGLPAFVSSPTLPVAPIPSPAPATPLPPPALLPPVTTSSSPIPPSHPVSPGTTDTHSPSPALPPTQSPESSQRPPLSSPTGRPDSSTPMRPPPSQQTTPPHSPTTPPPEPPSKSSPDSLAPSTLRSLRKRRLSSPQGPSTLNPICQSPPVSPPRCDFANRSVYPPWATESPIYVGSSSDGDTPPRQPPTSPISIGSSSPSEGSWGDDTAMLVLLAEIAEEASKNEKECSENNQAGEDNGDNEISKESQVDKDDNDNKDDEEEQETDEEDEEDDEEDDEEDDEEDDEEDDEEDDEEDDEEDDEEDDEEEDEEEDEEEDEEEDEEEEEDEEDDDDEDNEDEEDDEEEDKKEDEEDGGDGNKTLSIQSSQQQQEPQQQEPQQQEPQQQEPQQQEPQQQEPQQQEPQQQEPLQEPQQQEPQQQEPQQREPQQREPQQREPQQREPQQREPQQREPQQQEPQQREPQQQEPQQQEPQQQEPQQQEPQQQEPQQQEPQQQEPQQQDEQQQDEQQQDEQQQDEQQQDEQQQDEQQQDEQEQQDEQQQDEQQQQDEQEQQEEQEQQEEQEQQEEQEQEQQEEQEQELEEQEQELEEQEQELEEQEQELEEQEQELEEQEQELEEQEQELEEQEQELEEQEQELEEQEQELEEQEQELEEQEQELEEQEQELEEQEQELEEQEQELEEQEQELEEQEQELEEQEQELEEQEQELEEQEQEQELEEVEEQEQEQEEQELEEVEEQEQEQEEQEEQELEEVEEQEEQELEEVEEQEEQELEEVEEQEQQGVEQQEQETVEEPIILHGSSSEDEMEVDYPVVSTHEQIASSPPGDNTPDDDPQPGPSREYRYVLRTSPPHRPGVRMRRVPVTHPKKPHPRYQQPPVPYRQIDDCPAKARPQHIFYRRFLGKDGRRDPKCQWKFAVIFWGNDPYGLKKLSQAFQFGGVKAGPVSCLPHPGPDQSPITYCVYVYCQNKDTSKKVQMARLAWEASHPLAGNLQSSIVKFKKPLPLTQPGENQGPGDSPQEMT
Sequence of Cytochrome P450 2D6 (P10635 whole entry): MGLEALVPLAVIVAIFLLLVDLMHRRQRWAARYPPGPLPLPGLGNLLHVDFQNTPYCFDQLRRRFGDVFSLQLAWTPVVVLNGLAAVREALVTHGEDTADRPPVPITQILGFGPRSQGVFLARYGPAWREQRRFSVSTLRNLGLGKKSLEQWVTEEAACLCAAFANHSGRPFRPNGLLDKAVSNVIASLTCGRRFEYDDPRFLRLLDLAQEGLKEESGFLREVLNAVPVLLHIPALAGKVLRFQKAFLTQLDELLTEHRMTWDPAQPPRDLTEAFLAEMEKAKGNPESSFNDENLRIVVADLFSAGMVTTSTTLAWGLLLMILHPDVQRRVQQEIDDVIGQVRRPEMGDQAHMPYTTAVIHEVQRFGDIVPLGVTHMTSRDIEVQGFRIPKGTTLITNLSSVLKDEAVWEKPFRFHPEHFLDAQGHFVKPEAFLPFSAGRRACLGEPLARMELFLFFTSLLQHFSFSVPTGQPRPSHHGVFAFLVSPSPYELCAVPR
Sequence of Voltage-dependent T-type calcium channel subunit alpha-1H (O95180 whole entry): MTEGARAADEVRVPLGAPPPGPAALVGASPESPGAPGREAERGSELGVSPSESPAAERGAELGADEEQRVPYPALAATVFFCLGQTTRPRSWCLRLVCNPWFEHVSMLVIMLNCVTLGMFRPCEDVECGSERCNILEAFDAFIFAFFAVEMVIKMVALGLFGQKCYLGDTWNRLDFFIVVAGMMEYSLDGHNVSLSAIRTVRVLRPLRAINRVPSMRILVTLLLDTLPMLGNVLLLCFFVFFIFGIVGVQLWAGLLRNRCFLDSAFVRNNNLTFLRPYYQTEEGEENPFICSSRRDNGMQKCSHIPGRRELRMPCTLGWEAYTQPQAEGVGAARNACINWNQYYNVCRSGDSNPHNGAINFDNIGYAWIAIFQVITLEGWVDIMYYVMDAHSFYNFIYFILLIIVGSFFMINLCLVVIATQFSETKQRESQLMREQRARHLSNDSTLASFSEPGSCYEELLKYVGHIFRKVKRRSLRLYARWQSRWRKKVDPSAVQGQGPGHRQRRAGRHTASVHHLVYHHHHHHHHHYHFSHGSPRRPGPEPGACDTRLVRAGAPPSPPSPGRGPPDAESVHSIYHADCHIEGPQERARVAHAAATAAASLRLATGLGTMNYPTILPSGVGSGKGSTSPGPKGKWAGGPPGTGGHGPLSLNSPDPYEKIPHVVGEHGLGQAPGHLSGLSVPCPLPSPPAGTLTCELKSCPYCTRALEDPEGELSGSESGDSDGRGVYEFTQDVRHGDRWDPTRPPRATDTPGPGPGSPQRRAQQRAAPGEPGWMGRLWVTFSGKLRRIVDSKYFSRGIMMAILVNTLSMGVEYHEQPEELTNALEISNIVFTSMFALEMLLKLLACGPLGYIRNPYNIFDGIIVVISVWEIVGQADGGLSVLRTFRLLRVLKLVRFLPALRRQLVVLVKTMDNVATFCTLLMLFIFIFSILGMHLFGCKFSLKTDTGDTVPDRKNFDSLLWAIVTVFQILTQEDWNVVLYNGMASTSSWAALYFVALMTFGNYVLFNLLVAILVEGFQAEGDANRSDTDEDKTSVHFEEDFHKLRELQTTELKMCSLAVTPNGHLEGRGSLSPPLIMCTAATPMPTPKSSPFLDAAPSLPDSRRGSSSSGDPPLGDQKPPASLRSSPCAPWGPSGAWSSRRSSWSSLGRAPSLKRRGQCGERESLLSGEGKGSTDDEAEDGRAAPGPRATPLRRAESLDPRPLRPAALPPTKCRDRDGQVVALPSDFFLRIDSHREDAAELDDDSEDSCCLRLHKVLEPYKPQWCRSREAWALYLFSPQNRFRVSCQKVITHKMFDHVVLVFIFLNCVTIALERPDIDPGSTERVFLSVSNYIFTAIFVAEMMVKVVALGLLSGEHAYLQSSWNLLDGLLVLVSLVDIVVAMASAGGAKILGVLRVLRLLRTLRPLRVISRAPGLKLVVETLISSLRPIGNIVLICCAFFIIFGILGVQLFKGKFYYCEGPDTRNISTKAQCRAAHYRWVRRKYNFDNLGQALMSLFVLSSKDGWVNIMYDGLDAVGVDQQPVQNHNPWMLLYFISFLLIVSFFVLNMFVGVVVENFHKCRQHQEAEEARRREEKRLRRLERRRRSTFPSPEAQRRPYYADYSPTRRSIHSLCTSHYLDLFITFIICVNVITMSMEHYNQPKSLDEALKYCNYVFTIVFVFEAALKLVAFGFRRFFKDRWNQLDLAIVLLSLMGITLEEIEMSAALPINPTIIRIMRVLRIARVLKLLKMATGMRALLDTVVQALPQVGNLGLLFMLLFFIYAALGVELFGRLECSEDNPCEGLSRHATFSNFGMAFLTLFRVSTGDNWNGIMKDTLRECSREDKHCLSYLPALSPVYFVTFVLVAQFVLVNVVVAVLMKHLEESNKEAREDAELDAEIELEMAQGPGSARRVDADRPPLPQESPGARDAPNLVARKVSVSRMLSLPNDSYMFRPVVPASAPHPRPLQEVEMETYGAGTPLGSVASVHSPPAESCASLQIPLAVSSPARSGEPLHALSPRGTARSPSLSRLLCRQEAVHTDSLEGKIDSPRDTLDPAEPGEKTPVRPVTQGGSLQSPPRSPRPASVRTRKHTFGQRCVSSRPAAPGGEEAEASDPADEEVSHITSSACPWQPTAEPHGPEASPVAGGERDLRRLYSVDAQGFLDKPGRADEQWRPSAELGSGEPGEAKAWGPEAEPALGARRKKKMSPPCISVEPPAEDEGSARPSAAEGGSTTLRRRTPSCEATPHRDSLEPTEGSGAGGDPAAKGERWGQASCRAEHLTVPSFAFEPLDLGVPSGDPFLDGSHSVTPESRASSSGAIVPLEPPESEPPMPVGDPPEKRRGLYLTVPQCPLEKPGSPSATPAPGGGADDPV

## Cc1cc(C(=O)Nc2sc3c(c2C#N)CCC(C)C3)no1 (stereo not given)
[1]
  AC50: > 60 µM (inactive)

## CCOC(=O)Cc1csc(NC(=O)c2sc3nc4ccc(CC)cc4cc3c2N)n1
[2]
  EC50: > 195 µM (not active)
Cytochrome P450 2C19
  AC50: 0.2 µM (inconclusive)
Cytochrome P450 3A4
  AC50: 35.5 µM (inconclusive)
Cytochrome P450 2D6
  AC50: inconclusive

## CCOc1ccc2noc3c2c1C(=O)c1ccccc1-3
ORF 73
  AC50: 0.572 µM (active)
[3]
  AC50: 0.356 µM (active)
Insulin-degrading enzyme [4]
  EC50: > 54.7 µM (inactive)
[5]
  IC50: 87.4 µM (active)
Insulin-degrading enzyme [6]
  EC50: > 54.7 µM (inactive)
HEK293 [7]
  IC50: > 89.1 µM (inactive)
HEK293 [8]
  EC50: 4.95 µM (active)

## CCN(CC)c1ccc(N=Nc2nn(C)c(C)c2[N+](=O)[O-])cc1
[9]
  IC50: 35.3 µM (active)
[10]
  IC50: 52.5 µM (active)
[11]
  IC50: 13 µM (inactive)
[12]
  IC50: 47.1 µM (active)
[13]
  IC50: > 122 µM (inactive)

## CCC(C)CN1CC2CCC(NC(=O)c3cc(Cl)cc(Cl)c3)C2C1 (stereo not given)
[14]
  EC50: 9.4 µM (active)

## O=C(O)c1c2ccccc2nn1Cc1ccc(Cl)cc1
Candida albicans
  AC50: 149 µM (active)

## CCc1ccc(/C=N/Nc2[nH]cnc3ncnc2-3)cc1
[15]
  EC50: > 100 µM (inactive)
[16]
  EC50: 6.62 µM (active)
[17]
  EC50: 12.5 µM (active)
[18]
  EC50: 17.7 µM (active)
cells
  IC50: > 67.5 µM (inactive)
[19]
  IC50: 2.09 µM (active)

Reference: ChEMBL document CHEMBL1201862, “PubChem BioAssay data set” (2004)
